“And” between values parts separate entries of the source, which are not always exact repeats. Identical values can stand only once.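 Briefly, cells in 96-well plates were exposed to five compound concentrations for 48 h, and endpoints were estimated by linear interpolation. GI50 = concentration required for 50% inhibition of growth. TGI: total growth inhibition.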
Experiments:
Experiment in all cases: NCI-60 cell line screen, 48 h
[1] = system: OVCAR-5 ovarian
[2] = system: A549 NSCLC
[3] = system: TK-10 renal
[4] = system: MDA-MB-435
[5] = system: MOLT-4 leukemia
[6] = system: CCRF-CEM leukemia
[7] = system: UACC-257 melanoma
[8] = system: BT-549 breast
[9] = system: UO-31 renal
[10] = system: SF-539 CNS

Row | SMILES | GI50 [1] [µM] | TGI [1] [µM] | GI50 [2] [nM] | TGI [2] [µM] | GI50 [3] [µM] | TGI [3] [µM] | GI50 [4] [nM] | TGI [4] [µM] | GI50 [5] [nM] | TGI [5] [µM] | GI50 [6] [nM] | TGI [6] [µM] | GI50 [7] [µM] | TGI [7] [µM] | GI50 [8] [nM] | TGI [8] [µM] | GI50 [9] [nM] | TGI [9] [µM] | TGI [10] [µM] | GI50 [10]
1 | Cc1ccc(-c2nc(N3CCNCC3)c3oc(-c4ccc(C)cc4)nc3n2)cc1 | 5.21 | 17.9 | 3350 | 12.4 | 5.43 | 14 | 2300 | 6.22 | 2200 | 4.69 | 1490 | 4.04 | > 45.7 | > 65.9 | 5390 | 11.2 | 1760 | 3.57 | – | –
2 | O=C(O)CSc1n[nH]c(-c2ccccc2O)n1 | – | > 100 | – | > 100 | – | > 100 | – | – | – | > 100 | – | > 100 | – | > 100 | – | – | – | > 100 | > 100 | –
3 | C#Cc1cccc(Nc2nc3cc([N+](=O)[O-])ccc3nc2Nc2ccc(O)cc2)c1 | – | – | 2170 | 4.78 | – | – | 1670 | 3.39 | 1200 | 4.17 | 1330 | 6.01 | 2.09 | 4.34 | 1710 | 3.7 | 1530 | 3.12 | 3.29 | 1750 nM
4 | Cc1[cH-]c(=O)n(-c2ccccc2)n1.[Au+].[Au].c1ccc([PH+](c2ccccc2)c2ccccc2)cc1.c1ccc([PH+](c2ccccc2)c2ccccc2)cc1 | > 100 | > 100 | 46800 | > 100 | 16.6 | 31.9 | – | – | 36600 | > 100 | 22800 | > 100 | 25.4 | 91.3 | – | – | 11600 | > 100 | 33.4 | 2380 nM and 10400 nM
5 | COc1c(CC(C)=O)ccc2c1C(=O)c1ccc(C=O)c(OC(C)=O)c1C2=O | – | 30.3 | – | > 100 | – | 75.1 | – | – | – | 47.6 | – | 55.9 | – | 28.3 | – | – | – | 41.4 | 20.8 | –
6 | CCCCCCCCCCCCNC(=S)OC | – | 30.9 | – | 35 | – | 34.5 | – | – | – | 9.43 | – | 33.3 | – | 32.5 | – | – | – | 17.8 | 30.9 | –
7 | [O-][Cl+3]([O-])([O-])[O-].[O]=[Ru]=[O].c1ccc(-c2ccccn2)nc1.c1ccc(-c2ccccn2)nc1 | > 100 | > 100 | > 100000 | > 100 | – | – | – | – | > 100000 | > 100 | > 100000 | > 100 | > 100 | > 100 | – | – | > 100000 | > 100 | > 100 | > 100000 nM
8 | CCOC(=O)C1=C(C)N(NC(=O)Nc2ccccc2)C2(N)N(NC(=O)Nc3ccccc3)C(C)=C(C(=O)OCC)C12C(=O)OCC (stereo not given) | – | > 100 | – | > 100 | – | > 100 | – | – | – | – | – | – | – | > 100 | – | – | – | > 100 | 53.4 | –
9 | Cc1ccc(S(=O)(=O)N2CCC2c2ccccc2)cc1 (stereo not given) | – | – | – | > 100 | – | > 100 | – | – | – | > 100 | – | > 100 | – | > 100 | – | – | – | > 100 | > 100 | –
10 | O=c1c2cccnc2ncn1CCN1CCCCC1 | – | > 100 | – | > 100 | – | > 100 | – | – | – | > 100 | – | > 100 | – | – | – | – | – | > 100 | > 100 | –
11 | O=S1C(=c2ccc(=C3Sc4ccccc4S3)cc2)Sc2ccccc21 (stereo not given) | – | 32.4 | – | 35.5 | – | > 100 | – | – | – | > 100 | – | > 100 | – | > 100 | – | – | – | 35.2 | 30.5 | –
12 | COc1ccc(C(c2cc(OC)c(OC)c(OC)c2)n2cncn2)cc1O (stereo not given) | 1.99 | > 100 | 969 | > 100 | > 100 | > 100 | – | – | 510 | > 100 | 402 | > 100 | > 100 | > 100 | 618 | > 100 | 903 | > 100 | 1.11 | 300 nM
13 | CCCOc1nc(N)c2cnn(C3CCCCO3)c2n1 (stereo not given) | – | > 100 | – | > 100 | – | – | – | – | – | > 100 | – | > 100 | – | > 100 | – | – | – | > 100 | > 100 | –
14 | CN(C)CC1CCC/C1=N/OC(=O)c1ccccc1 (stereo not given) | – | > 100 | – | – | – | > 100 | – | – | – | > 100 | – | > 100 | – | > 100 | – | – | – | > 100 | > 100 | –
15 | CC#Cc1ccc(-c2ccccc2)s1 | – | > 100 | – | > 100 | – | > 100 | – | > 100 | – | > 100 | – | > 100 | – | > 100 | – | – | – | > 100 | > 100 | –
16 | O=c1[nH]c(-c2ccccc2)nc2cc(Cl)ccc12 | – | > 100 | – | > 100 | – | > 100 | – | – | – | > 100 | – | > 100 | – | > 100 | – | – | – | > 100 | > 100 | –
17 | CN(C)C(=S)/N=c1\ssc(=S)n1C1CCCCC1 | – | > 100 | – | > 100 | – | > 100 | – | – | – | 52.3 | – | 46.1 | – | 64.9 | – | – | – | > 100 | 48.3 | –
18 | O=C(/C=C/c1c(O)ccc2ccccc12)c1ccc([N+](=O)[O-])cc1 | – | > 100 | – | > 100 | – | > 96.4 | – | – | – | > 90.4 | – | > 75.8 | – | 74 | – | – | – | > 61.7 | > 90.8 | –
19 | COc1cc(-c2nc3sccn3c2-c2ccnc(NCCNS(=O)(=O)c3ccc(F)cc3)n2)ccc1F | 6.51 | > 100 | 2440 | > 100 | 6.27 | > 100 | 1110 | 5.5 | – | – | 643 | > 100 | 3.88 | > 100 | 292 | > 100 | 1290 | > 100 | > 100 | 4860 nM
20 | Cc1nnc2ccnn2c1C | 17.6 | 34.6 | > 100000 | > 100 | > 100 | > 100 | > 100000 | > 100 | > 100000 | > 100 | > 100000 | > 100 | – | – | > 100000 | > 100 | > 100000 | > 100 | – | –

Source: PubChem BioAssay (NCI)
